Experimental data: patent US20120264735A1 (priority 2009, published 2012)

Target: T1, c-Met kinase (recombinant c-Met) (Homo sapiens, UniProt P08581)
T1 construct: 0.27 nM recombinant c-Met
Test: In vitro kinase assay I (homogeneous time-resolved fluorescence tyrosine kinase assay)
Type: biochemical
How it was run: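 Biotinylated peptide (0.5 μM) phosphorylated by 0.2 nM recombinant c-Met with 50 μM MgATP, 60 min at room temperature, pH 7.4, 5% DMSO. EDTA stop; HTRF read with Eu-anti-phosphotyrosine antibody and streptavidin-APC. IC50 from 4-parameter logistic fit.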

T1 sequence (P08581 25-1390): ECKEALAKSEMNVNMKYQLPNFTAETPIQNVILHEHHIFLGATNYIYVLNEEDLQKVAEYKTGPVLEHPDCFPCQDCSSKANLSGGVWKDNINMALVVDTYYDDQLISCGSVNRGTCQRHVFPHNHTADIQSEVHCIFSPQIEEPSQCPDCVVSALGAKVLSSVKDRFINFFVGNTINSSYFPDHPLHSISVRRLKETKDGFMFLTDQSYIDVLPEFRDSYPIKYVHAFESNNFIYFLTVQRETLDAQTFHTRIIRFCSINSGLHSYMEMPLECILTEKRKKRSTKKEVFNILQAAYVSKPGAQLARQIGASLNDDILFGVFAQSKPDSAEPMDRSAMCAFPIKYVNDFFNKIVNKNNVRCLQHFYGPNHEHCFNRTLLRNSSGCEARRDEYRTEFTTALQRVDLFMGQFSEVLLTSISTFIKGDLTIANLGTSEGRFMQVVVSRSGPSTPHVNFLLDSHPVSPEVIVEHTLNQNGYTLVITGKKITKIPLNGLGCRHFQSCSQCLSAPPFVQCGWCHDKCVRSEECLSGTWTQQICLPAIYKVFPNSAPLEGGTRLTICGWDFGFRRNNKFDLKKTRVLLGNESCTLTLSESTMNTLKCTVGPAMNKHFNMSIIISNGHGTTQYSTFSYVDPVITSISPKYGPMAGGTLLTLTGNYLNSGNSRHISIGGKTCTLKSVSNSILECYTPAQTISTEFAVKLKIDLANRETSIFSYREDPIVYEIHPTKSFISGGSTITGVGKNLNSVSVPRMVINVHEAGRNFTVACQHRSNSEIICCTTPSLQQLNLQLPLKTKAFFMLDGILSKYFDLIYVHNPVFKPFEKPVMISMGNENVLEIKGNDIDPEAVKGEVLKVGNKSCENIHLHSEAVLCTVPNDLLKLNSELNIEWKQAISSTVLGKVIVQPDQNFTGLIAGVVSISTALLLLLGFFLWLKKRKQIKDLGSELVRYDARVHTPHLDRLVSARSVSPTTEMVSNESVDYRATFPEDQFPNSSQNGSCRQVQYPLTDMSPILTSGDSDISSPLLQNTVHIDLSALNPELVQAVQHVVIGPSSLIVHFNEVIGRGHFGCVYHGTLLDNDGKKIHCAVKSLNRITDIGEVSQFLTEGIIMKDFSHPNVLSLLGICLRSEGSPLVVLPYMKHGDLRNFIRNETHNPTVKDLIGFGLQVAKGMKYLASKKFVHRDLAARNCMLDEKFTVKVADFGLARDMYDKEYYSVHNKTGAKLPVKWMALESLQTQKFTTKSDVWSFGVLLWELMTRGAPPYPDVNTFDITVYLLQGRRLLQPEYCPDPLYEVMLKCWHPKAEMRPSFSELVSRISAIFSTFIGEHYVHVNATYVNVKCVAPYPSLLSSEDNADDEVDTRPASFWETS

| Compound | IC50 [nM] |
| --- | --- |
| Cn1cc(-n2ccc(=O)c(Cc3cccc(-c4ncc(OCC(O)C(F)(F)F)cn4)c3)n2)cn1 (racemic) [Example 364, rac-1-(1-methyl-1H-pyrazol-4-yl)-3-{3-[5-(3,3,3-trifluoro-2-hydroxypropoxy)pyrimidin-2-yl]benzyl}pyridazin-4(1H)-one] | < 100 |
| O=c1ccn(-c2ccccc2)nc1Cc1cccc(-c2ncccn2)c1 [Example 669, 1-Phenyl-3-[3-(pyrimidin-2-yl)benzyl]pyridazin-4(1H)-one] | 100 to 1000 |
| CCCNc1cnc(-c2cccc(Cc3nn(-c4cnn(C)c4)ccc3=O)c2)nc1 [Example 451, 1-(1-Methyl-1H-pyrazol-4-yl)-3-{3-[5-(propylamino)pyrimidin-2-yl]benzyl}pyridazin-4(1H)-one] | < 100 |
| Cn1cc(-n2ccc(=O)c(Cc3cccc(-c4ncc(OCC5COCCO5)cn4)c3)n2)cn1 (single isomer, unassigned) [Example 348, 3-(3-{5-[(2S or R)-1,4-dioxan-2-ylmethoxy]pyrimidin-2-yl}benzyl)-1-(1-methyl-1H-pyrazol-4-yl)pyridazin-4(1H)-one] | < 100 |
| CN(C)C(=O)COc1cnc(-c2cccc(Cc3nn(-c4cnn(C)c4)ccc3=O)c2)nc1 [Example 279, N,N-dimethyl-2-{[2-(3-{[1-(1-methyl-1H-pyrazol-4-yl)-4-oxo-1,4-dihydropyridazin-3-yl]methyl}phenyl)pyrimidin-5-yl]oxy}acetamide] | < 100 |
| Cn1cc(-n2ccc(=O)c(Cc3cccc(-c4ncc(-c5cncnc5)cn4)c3)n2)cn1 [Example 411, 3-[3-(5,5′-bipyrimidin-2-yl)benzyl]-1-(1-methyl-1H-pyrazol-4-yl)pyridazin-4(1H)-one] | < 100 |
| CC(C)COC(=O)Nc1cccc(Cc2nn(-c3cccc(-c4cnn(C)c4)c3)ccc2=O)c1 [Example 729, 2-methylpropyl [3-({1-[3-(1-methyl-1H-pyrazol-4-yl)phenyl]-4-oxo-1,4-dihydropyridazin-3-yl}methyl)phenyl] carbamate] | 100 to 1000 |
| Cn1cc(-n2ccc(=O)c(Cc3cccc(-c4ncc(-c5cnc(N)nc5)cn4)c3)n2)cn1 [Example 417, 3-[3-(2′-amino-5,5′-bipyrimidin-2-yl)benzyl]-1-(1-methyl-1H-pyrazol-4-yl)pyridazin-4(1H)-one] | < 100 |
| COC(C)(C)Cn1cnc(-c2cccc(Cc3nn(-c4cnn(C)c4)ccc3=O)c2)n1 [Example 719, 3-{3-[1-(2-methoxy-2-methylpropyl)-1H-1,2,4-triazol-3-yl]benzyl}-1-(1-methyl-1H-pyrazol-4-yl)pyridazin-4(1H)-one] | < 100 |
| Cn1cc(-n2ccc(=O)c(Cc3cccc(-c4ncc(CCc5ccccn5)cn4)c3)n2)cn1 [Example 398, 1-(1-methyl-1H-pyrazol-4-yl)-3-(3-{5-[2-(pyridin-2-yl)ethyl]pyrimidin-2-yl}benzyl)pyridazin-4(1H)-one] | < 100 |
| CC(c1cccc(-c2ncn(C)n2)c1)c1nn(-c2cnn(C)c2)ccc1=O (single isomer, unassigned) [Example 683, 1-(1-methyl-1H-pyrazol-4-yl)-3-{(1R or S)-1-[3-(1-methyl-1H-1,2,4-triazol-3-yl)phenyl]ethyl} pyridazin-4(1H)-one] | < 100 |
| CCOC(=O)c1coc(-c2cccc(Cc3nn(-c4cnn(C)c4)ccc3=O)c2)n1 [Example 674, ethyl 2-(3-{[1-(1-methyl-1H-pyrazol-4-yl)-4-oxo-1,4-dihydropyridazin-3-yl]methyl}phenyl)-1,3-oxazole-4-carboxylate] | 1000 to 3000 |
| CCOc1cnc(-c2cccc(Cc3nn(-c4cc(F)cc(F)c4)ccc3=O)c2)nc1 [Example 146, 1-(3,5-difluorophenyl)-3-[3-(5-ethoxypyrimidin-2-yl)benzyl]pyridazin-4(1H)-one] | < 100 |
| CCCCc1nc(-c2cccc(Cc3nn(-c4cnn(C)c4)ccc3=O)c2)ncc1OCC [Example 176, 3-[3-(4-butyl-5-ethoxypyrimidin-2-yl)benzyl]-1-(1-methyl-1H-pyrazol-4-yl)pyridazin-4(1H)-one] | < 100 |
| CCNc1cnc(-c2cccc(Cc3nn(-c4cnn(C)c4)ccc3=O)c2)nc1 [Example 452] | < 100 |
| CCn1cc(-n2ccc(=O)c(Cc3cccc(-c4ncc(OC5CNC5)cn4)c3)n2)cn1 [Example 337, 3-{3-[5-(azetidin-3-yloxy)pyrimidin-2-yl]benzyl}-1-(1-ethyl-1H-pyrazol-4-yl)pyridazin-4(1H)-one] | < 100 |
| CCOC(=O)c1cnc(-c2cccc(Cc3nn(-c4cnn(C)c4)ccc3=O)c2)o1 [Example 675, ethyl 2-(3-{[1-(1-methyl-1H-pyrazol-4-yl)-4-oxo-1,4-dihydropyridazin-3-yl]methyl}phenyl)-1,3-oxazole-5-carboxylate] | 100 to 1000 |

| Compound | IC50 [nM] |
| --- | --- |
| CC(c1cccc(-c2ncc(Br)cn2)c1)c1nn(-c2cnn(C)c2)ccc1=O (single isomer, unassigned) [Example 241, 3-{(1S or R)-1-[3-(5-bromopyrimidin-2-yl)pheny]ethyl)}-1-(1-methyl-1H-pyrazol-4-yl)pyridazin-4(1H)-one] | 100 to 1000 |
| COc1ccc(CNC(=O)Nc2cccc(Cc3nn(-c4cnn(C)c4)ccc3=O)c2)cc1 [Example 495, 1-(4-methoxybenzyl)-3-(3-{[1-(1-methyl-1H-pyrazol-4-yl)-4-oxo-1,4-dihydropyridazin-3-yl]methyl}phenyl)urea] | < 100 |
| COCCN1CCC(COC(=O)Nc2cccc(Cc3nn(-c4cccc(C#N)c4)ccc3=O)c2)C1 (racemic) [Example 585, rac-[1-(2-methoxyethyl)pyrrolidin-3-yl]methyl (3-{[1-(3-cyanophenyl)-4-oxo-1,4-dihydropyridazin-3-yl]methyl}phenyl)carbamate] | < 100 |
| O=c1ccn(-c2ccc(F)c(F)c2)nc1Cc1cccc(-c2ncc(OCc3ccccc3)cn2)c1 [Example 124, 3-{3-[5-(benzyloxy)pyrimidin-2-yl]benzyl}-1-(3,4-difluorophenyl)pyridazin-4(1H)-one] | < 100 |
| O=C(NCCN1CCOCC1)Nc1cccc(Cc2nn(-c3ccc(F)c(F)c3)ccc2=O)c1 [Example 496, 1-(3-{[1-(3,4-difluorophenyl)-4-oxo-1,4-dihydropyridazin-3-yl]methyl}phenyl)-3-(2-morpholin-4-ylethyl)urea] | < 100 |
| CCOC(=O)Nc1cccc(C(F)c2nn(-c3ccc(Cl)cc3)ccc2=O)c1 (racemic) [Example 641, rac-Ethyl(3-{[1-(4-chlorophenyl)-4-oxo-1,4-dihydropyridazin-3-yl](fluoro)methyl}phenyl)carbamate] | 100 to 1000 |
| CCCCn1cnc(-c2cccc(Cc3nn(-c4cnn(C)c4)ccc3=O)c2)n1 [Example 76, 3-[3-(1-butyl-1H-1,2,4-triazol-3-yl)benzyl]-1-(1-methyl-1H-pyrazol-4-yl)pyridazin-4(1H)-one] | < 100 |
| Cn1cc(-n2ccc(=O)c(Cc3cccc(-c4ncc(N5CCN(C(=O)OC(C)(C)C)CC5)cn4)c3)n2)cn1 [Example 471, tert-butyl 4-[2-(3-{[1-(1-methyl-1H-pyrazol-4-yl)-4-oxo-1,4-dihydro-pyridazin-3-yl]methyl}phenyl)pyrimidin-5-yl]piperazine-1-carboxylate] | < 100 |
| Cn1cc(-n2ccc(=O)c(Cc3cccc(-c4ncn(CCS(C)(=O)=O)n4)c3)n2)cn1 [Example 714, 1-(1-methyl-1H-pyrazol-4-yl)-3-(3-{1-[2-(methylsulfonyl)ethyl]-1H-1,2,4-triazol-3-yl}benzyl)pyridazin-4(1H)-one] | 100 to 1000 |
| COCCOc1ccnc(-c2cccc(C(C)c3nn(-c4cnn(C)c4)ccc3=O)c2)n1 (racemic) [Example 679, rac-3-(1-{3-[4-(2-methoxyethoxy)pyrimidin-2-yl]phenyl}ethyl)-1-(1-methyl-1H-pyrazol-4-yl)pyridazin-4(1H)-one] | 100 to 1000 |
| CC(c1cccc(-c2ncc(OC(C)C(C)(C)O)cn2)c1)c1nn(-c2cnn(C)c2)ccc1=O (single isomer, unassigned) [Example 382, 3-{(1R or S)-1-[3-(5-{[(1R or S)-2-hydroxy-1,2-dimethylpropyl]oxy}pyrimidin-2-yl)phenyl]ethyl}-1-(1-methyl-1H-pyrazol-4-yl)pyridazin-4(1H)-one] | < 100 |
| Cn1cc(-n2ccc(=O)c(Cc3cccc(-c4ncc(C5=CCOC5)cn4)c3)n2)cn1 [Example 175, 3-{3-[5-(2,5-dihydrofuran-3-yl)pyrimidin-2-yl]benzyl}-1-(1-methyl-1H-pyrazol-4-yl)pyridazin-4(1H)-one] | < 100 |
| CCOC(=O)Nc1cccc(Cc2nn(-c3cccc(O)c3)ccc2=O)c1 [Example 646, Ethyl(3-{[1-(3-hydroxyphenyl)-4-oxo-1,4-dihydropyridazin-3-yl]methyl}phenyl)carbamate] | < 100 |
| Cn1cc(-n2ccc(=O)c(Cc3cccc(-c4ncc(C(=O)NCC5COCCO5)cn4)c3)n2)cn1 (racemic) [Example 474, rac-N-(1,4-Dioxan-2-ylmethyl)-2-(3-{[1-(1-methyl-1H-pyrazol-4-yl)-4-oxo-1,4-dihydropyridazin-3-yl]methyl}phenyl)pyrimidine-5-carboxamide] | < 100 |
| COCCOC(=O)Nc1cccc(Cc2nn(-c3cc(F)cc(F)c3)ccc2=O)c1 [Example 507, 2-methoxyethyl (3-{[1-(3,5-difluorophenyl)-4-oxo-1,4-dihydropyridazin-3-yl]methyl}phenyl)carbamate] | < 100 |
| CC(C)COC(=O)Nc1cccc(Cc2nn(-c3cnn(CCC(=O)O)c3)ccc2=O)c1 [Example 182, 3-{4-[3-(3-{[(2-methylpropoxy)carbonyl]amino}benzyl)-4-oxopyridazin-1(4H)-yl]-1H-pyrazol-1-yl}propanoic acid] | < 100 |
| CCCOC(=O)Nc1cccc(Cc2nn(-c3ccc(OC)nc3)ccc2=O)c1 [Example 32, propyl (3-{[1-(6-methoxypyridin-3-yl)-4-oxo-1,4-dihydropyridazin-3-yl]methyl}phenyl)carbamate] | < 100 |
